Some test systems named below: IGROV1 ovarian; RXF 393 renal; NCI-H226 lung; HOP-92 NSCLC; MDA-MB-231 breast; NCI-H460 lung; OVCAR-5 ovarian; MALME-3M melanoma.
What all share (assay): DTP human tumour cell line panel, 48 h

Broadly, the GI50 is the concentration at which growth is held to half of that of the control. By TGI is commonly meant the concentration at which net growth stops. A high value points to less potent growth arrest.

Structures are written as SMILES.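 Interpolation was linear, between the two tested concentrations surrounding the appropriate level; five concentrations were tested over 48 hours in 96-well plates. GI50: concentration for 50% inhibition of growth. TGI denotes the concentration required for complete inhibition of growth.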

On to `CC1NC(=O)C2=C1C(=O)NC(=O)C2` (stereo unspecified), for which the GI50 with IGROV1 ovarian, with RXF 393 renal, in the assay on NCI-H226 lung, in the assay with HOP-92 NSCLC, in the assay with MDA-MB-231 breast and in the assay with NCI-H460 lung was above 100 µM each time. Further, the GI50 in the assay with OVCAR-5 ovarian was above 100 µM. Also, the TGI in the assay with IGROV1 ovarian, in the assay with RXF 393 renal, with NCI-H226 lung, in the assay on HOP-92 NSCLC, in the assay on MDA-MB-231 breast and in the assay with NCI-H460 lung was above 100 µM in each case. In the assay with OVCAR-5 ovarian, the total growth inhibition concentration (TGI) is above 100 µM.

Regarding `Cc1cc(-c2cc(O)ccc2Cl)cc2nnc(Nc3ccc(OCCN4CCCC4)cc3)nc12`, the GI50 was 0.19 µM in the assay on MALME-3M melanoma; 1.63 µM in the assay with IGROV1 ovarian; 1.2 µM in the assay with RXF 393 renal; 4.71 µM with NCI-H226 lung; 1.1 µM in the assay on HOP-92 NSCLC; 0.299 µM in the assay with MDA-MB-231 breast. The values for the GI50 with NCI-H460 lung and in the assay on OVCAR-5 ovarian were 0.579 µM and 1.65 µM, respectively. Further, the total growth inhibition concentration (TGI) with MALME-3M melanoma amounted to 0.426 µM; in the assay with IGROV1 ovarian, 3.57 µM; with RXF 393 renal it was 2.61 µM; in the assay with NCI-H226 lung, 7.12 µM; with HOP-92 NSCLC, 2.59 µM; with MDA-MB-231 breast it was 0.967 µM. The total growth inhibition concentration (TGI) with NCI-H460 lung turned out to be 1.12 µM; in the assay on OVCAR-5 ovarian it was 3.14 µM.

With `COc1ccc(/C=C2/SC(Nc3nc(-c4nc(NC5=NC(=O)/C(=C\c6ccc(OC)cc6)S5)sc4C)c(C)s3)=NC2=O)cc1`, the GI50 was 5.26 µM with IGROV1 ovarian; 1.53 µM in the assay with RXF 393 renal; 4.98 µM with NCI-H226 lung; 6.15 µM with HOP-92 NSCLC; 1.35 µM in the assay on MDA-MB-231 breast; 1.4 µM in the assay on NCI-H460 lung. The GI50 in the assay with OVCAR-5 ovarian is 5.18 µM. For the same compound, the TGI is above 50 µM with IGROV1 ovarian; 7.23 µM in the assay with RXF 393 renal; 24.9 µM with NCI-H226 lung; 19.1 µM in the assay on HOP-92 NSCLC; 7.14 µM in the assay with MDA-MB-231 breast; above 31.7 µM in the assay on NCI-H460 lung. This compound also registered a concentration for total growth inhibition (TGI) with OVCAR-5 ovarian of 24.5 µM.

As for `COc1cc(/C=N/N=C(\N)NO)c(Cl)cc1O`, the TGI is above 100 µM in the assay with MALME-3M melanoma; above 100 µM in the assay with IGROV1 ovarian; above 100 µM with RXF 393 renal; above 100 µM in the assay with NCI-H226 lung; 73.2 µM in the assay with HOP-92 NSCLC; above 100 µM in the assay with OVCAR-5 ovarian.

With `CCCCCCCCCCCCOC1C(CNC(=O)C2OC3OC(C)(C)OC3C2NC(=O)CN2CCN(c3ccc(OC)cc3)CC2)OC2OC(C)(C)OC21` (stereo unspecified), the GI50 was 11.9 µM in the assay with MALME-3M melanoma; 4.24 µM with IGROV1 ovarian; 2.1 µM with RXF 393 renal; 5.56 µM with NCI-H226 lung; 3.17 µM in the assay with HOP-92 NSCLC; 5.65 µM with MDA-MB-231 breast. Further, the GI50 in the assay on OVCAR-5 ovarian is 2.52 µM. For the same compound, the total growth inhibition concentration (TGI) in the assay with MALME-3M melanoma was determined as 24.1 µM; with IGROV1 ovarian, 16.4 µM; with RXF 393 renal it was 4.44 µM; in the assay on NCI-H226 lung, 19.2 µM; in the assay with HOP-92 NSCLC, 12.2 µM; in the assay on MDA-MB-231 breast, 17.8 µM. For the same compound, the total growth inhibition concentration (TGI) in the assay with OVCAR-5 ovarian was 7.5 µM.

Turning to `CCNC(=O)Oc1ccc(/C(=C(/C)Cc2ccc(OC)cc2)c2ccc(OCCN(CC)CC)cc2)cc1`, the GI50 was 1.64 µM with MALME-3M melanoma; 2.59 µM with IGROV1 ovarian; 1.9 µM in the assay on RXF 393 renal; 2.99 µM in the assay with NCI-H226 lung; 1.78 µM with MDA-MB-231 breast; 1.85 µM in the assay on NCI-H460 lung. For the same compound, in the assay on OVCAR-5 ovarian, the GI50 was 3.42 µM. Further, the concentration for total growth inhibition (TGI) in the assay with MALME-3M melanoma was 3.22 µM; with IGROV1 ovarian, 6.87 µM; in the assay with RXF 393 renal it was 3.62 µM; in the assay on NCI-H226 lung, 12.6 µM; with MDA-MB-231 breast, 3.38 µM; with NCI-H460 lung, 3.5 µM. In the assay with OVCAR-5 ovarian, the TGI came to 12.8 µM.

As to `C/C(=C(\c1ccc(OCCN2CCCCCC2)cc1)c1ccc(OC(=O)c2ccccc2)cc1)c1ccc(Cl)cc1`, the GI50 in the assay on MALME-3M melanoma was 3.6 µM; in the assay with IGROV1 ovarian, 4.36 µM; in the assay with RXF 393 renal it was 3.71 µM; in the assay on NCI-H226 lung, 5.47 µM; in the assay on HOP-92 NSCLC, 3.57 µM; in the assay with MDA-MB-231 breast it was 4.9 µM. Besides, the figures for the GI50 in the assay with NCI-H460 lung and with OVCAR-5 ovarian were 2.5 µM and 3.93 µM, respectively. Also, the TGI with MALME-3M melanoma was 8.72 µM; with IGROV1 ovarian, 10.7 µM; in the assay on RXF 393 renal it was 8.18 µM; in the assay on NCI-H226 lung, 11.1 µM; with HOP-92 NSCLC, 7.8 µM; in the assay on MDA-MB-231 breast it was 9.96 µM. In addition, the TGI was 7.44 µM in the assay with NCI-H460 lung and 8.82 µM in the assay on OVCAR-5 ovarian.

For `Cn1c2c(c3c(Cl)nncc31)Cc1ccccc1-2`, the GI50 is 24.9 µM with MALME-3M melanoma; 48.9 µM with IGROV1 ovarian; 24.5 µM in the assay on RXF 393 renal; 15.6 µM in the assay with NCI-H226 lung; 9.47 µM with HOP-92 NSCLC; 21.2 µM in the assay with MDA-MB-231 breast. The GI50 was 5.28 µM in the assay on NCI-H460 lung and 27.4 µM with OVCAR-5 ovarian. The concentration for total growth inhibition (TGI) in the assay with MALME-3M melanoma was 85.6 µM; with IGROV1 ovarian, above 100 µM; with RXF 393 renal, 80.7 µM; in the assay on NCI-H226 lung it was 46.8 µM; in the assay with HOP-92 NSCLC it was 43 µM; in the assay on MDA-MB-231 breast it was 73.5 µM. Besides, the results for the TGI in the assay with NCI-H460 lung and with OVCAR-5 ovarian were 67.1 µM and above 100 µM, respectively.

For the compound `c1ccc(CNCCN(CCNCc2ccccn2)Cc2ccc3ccccc3c2)nc1`, the GI50 in the assay with MALME-3M melanoma was 1.65 µM; with IGROV1 ovarian it was 2.3 µM; in the assay on RXF 393 renal, 2.03 µM; in the assay with NCI-H226 lung it was 1.77 µM; in the assay on HOP-92 NSCLC it was 1.79 µM; with MDA-MB-231 breast it was 1.68 µM. Also, the GI50 is 2.14 µM with NCI-H460 lung and 1.63 µM in the assay on OVCAR-5 ovarian. The TGI came out at 3.63 µM with MALME-3M melanoma; 7.5 µM in the assay on IGROV1 ovarian; 5.17 µM in the assay on RXF 393 renal; 3.53 µM with NCI-H226 lung; 4.64 µM with HOP-92 NSCLC; 3.81 µM in the assay on MDA-MB-231 breast. Also, the TGI in the assay with NCI-H460 lung is 5 µM; in the assay with OVCAR-5 ovarian, 4.03 µM.

These data come from PubChem BioAssay (NCI).
